According to patent publication US9045470B2, “Compounds and compositions as TLR activity modulators” (IRM LLC, priority 2009, dated 2015):
pEC50: −log10 of the molar value.

Columns and labels:
human TLR7 = target: T1, human TLR7 (Homo sapiens, UniProt Q9NYK1); experiment: Reporter gene assay: HEK293 cells stably transfected with human TLR7 and NF-kB-driven luciferase reporter; format: cell-based
T1 construct: expressed in transfected cells; host or cells: HEK 293 (human embryonic kidney 293), stably transfected; co-transfected pNifty-Luciferase reporter
T1 sequence (Q9NYK1 27-1049): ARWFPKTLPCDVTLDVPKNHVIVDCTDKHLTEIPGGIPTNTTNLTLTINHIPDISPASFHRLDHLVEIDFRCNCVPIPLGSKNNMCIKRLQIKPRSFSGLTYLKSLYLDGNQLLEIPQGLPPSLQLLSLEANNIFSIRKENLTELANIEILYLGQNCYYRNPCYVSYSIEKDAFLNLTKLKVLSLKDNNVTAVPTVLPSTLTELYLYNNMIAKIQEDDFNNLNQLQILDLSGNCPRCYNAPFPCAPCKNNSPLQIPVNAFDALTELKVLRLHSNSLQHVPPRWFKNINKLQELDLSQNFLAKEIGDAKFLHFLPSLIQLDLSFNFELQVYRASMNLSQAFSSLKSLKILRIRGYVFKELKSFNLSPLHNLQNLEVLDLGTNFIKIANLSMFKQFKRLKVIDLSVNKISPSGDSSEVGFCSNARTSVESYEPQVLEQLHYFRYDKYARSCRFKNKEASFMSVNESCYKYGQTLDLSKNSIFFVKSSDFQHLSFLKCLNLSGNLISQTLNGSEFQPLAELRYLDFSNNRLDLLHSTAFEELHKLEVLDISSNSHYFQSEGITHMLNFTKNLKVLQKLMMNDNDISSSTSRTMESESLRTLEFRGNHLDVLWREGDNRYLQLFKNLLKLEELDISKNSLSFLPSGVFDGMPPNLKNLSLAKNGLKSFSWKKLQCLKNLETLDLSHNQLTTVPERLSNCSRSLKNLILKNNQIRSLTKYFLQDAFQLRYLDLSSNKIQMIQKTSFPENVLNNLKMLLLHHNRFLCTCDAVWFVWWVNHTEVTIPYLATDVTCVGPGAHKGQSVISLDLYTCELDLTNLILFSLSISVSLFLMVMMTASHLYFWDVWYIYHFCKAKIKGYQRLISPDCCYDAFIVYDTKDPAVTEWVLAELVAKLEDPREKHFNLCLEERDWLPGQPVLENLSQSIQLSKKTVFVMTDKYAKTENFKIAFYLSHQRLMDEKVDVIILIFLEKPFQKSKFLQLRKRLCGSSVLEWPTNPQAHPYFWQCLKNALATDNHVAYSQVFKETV
Procedure: Human embryonic kidney 293 (HEK 293) cells were stably transfected with human TLR7 and an NF-kB-driven luciferase reporter vector (pNifty-Luciferase). As a control assay, normal Hek293 transfected with pNifty-Luc were used. Cells were cultured in DMEM supplemented with 2 mM L-glutamine, 10% heart inactivated FBS, 1% penicillin and streptomycin, 2 μg/ml puromycin (InvivoGen #ant-pr-5) and 5 μg/ml of blasticidin (Invitrogen #46-1120). Bright-Glo™ Luciferase assay buffer and substrate were supplied by Promega #E263B and #E264B (assay substrate and buffer respectively). 384 well clear-bottom plates were supplied by Greiner bio-one (#789163-G) and were custom bar-coded plates.
Cells were plated at 25,000 cells/well in 384-well plates in a final volume of 50 μl of media. Cells were allowed to adhere to the plates after overnight (18 hours) culture at 37° C. and 5% CO2. Serially diluted experimental and positive control compounds were then dispensed to each well and incubated for 7 hours at 37° C. and 5% CO2. Cells stimulated with DMSO alone also serve as negative controls. After the incubation, 30 μl of the pre-mix assay buffer and substrate buffer were added to each well according to manufacturer's instructions.
The EC50 value in those experiments is given as that concentration of the test compound in question that provoke a response halfway between the baseline and maximum responses. […] Such EC50 values are obtained relative to the activity of resiquimod set to 100%.

[1] = Binding to aluminum hydroxide adjuvant, HPLC of formulation supernatant; format: physicochemical; settings: aluminum hydroxide 2 mg/mL, room temperature and 37° C., 1, 5 and 24 hours
Procedure: The binding of the compounds of Formula (I) provided herein to aluminum-containing adjuvants at pH 9 and pH 6.5 was evaluated using HPLC to monitor the presence of the compound of Formula (I) in the supernatant.
(§1) Compound 1 (0.5 mg/mL) was dissolved in 10 mM NaOH and added to aluminum hydroxide adjuvant (2 mg/mL) resulting in a 100 μg/dose formulation. The supernatant was evaluated with HPLC using a ballistic gradient (from 10% CH3CN-0.1% TFA to 100% CH3CN-0.1% TFA in 2.5 minutes) on a C18 ([…]×4.6 mm) ACE column at 45° C. To evaluate the effect of supernatant temperature and incubation time on binding, the supernatant was evaluated at a supernatant temperature of room temperature and at 37° C. after 1 hour, 5 hours and 24 hours. A control without aluminum hydroxide was also evaluated.
as §1, with “5 (1” for “1 (0.5”
as §1, with “formulation. The pH of the solution was adjusted to pH 6.5 using HCl.” for “formulation.”
as §1, with “5 (1” for “1 (0.5”, “histidine buffer (1 mg/mL)” for “NaOH”

[2] = Desorption from aluminum hydroxide with KH2PO4 and n-butanol extraction, HPLC; format: physicochemical
Procedure: An organic solvent extraction method was used to evaluate whether compound 1 was covalently bound to aluminum hydroxide. The formulation was prepared as follows: 2 mg/ml aluminum hydroxide, 100 μg/dose compound 1, 10 mM histidine buffer) and the pH was adjusted to 9. A control formulation without aluminum hydroxide was also prepared.
One ml of the formulation containing Alum was mixed with 1 ml of KH2PO4 1M pH 9 (0.5M final conc, pH 9) and was left in gentle agitation overnight at 37° C. to allow desorption of compound 1 (compound 5) from the aluminum hydroxide via ligand exchange with the phosphate anions. Organic extraction was then performed: 1 ml of each sample was mixed with 1 ml of n-butanol and vortexed. After the formation of 2 phases, the upper phase (butanol) was recovered, dried with N2 and resuspended in MeOH/10 mM NaOH. HPLC analysis was run both for the formulation supernatants and for the butanol extracted samples (C18 column; 0-100% B in 2 min; A=0.1% TFA in H2O; B=0.1% TFA in ACN).
The adsorption of compound 16 and compound 18 to aluminum hydroxide was also evaluated using the alum formulation described above for compound 1. […] In addition, SDS PAGE analysis of antigen binding in the presence of compound 16 or compound 18 was carried out as described above.

SMILES	pEC50 (human TLR7)	presence of compound in supernatant when aluminum hydroxide included in formulation (HPLC) ([1]; pH 6.7, 10 mM histidine buffer)	presence of compound in supernatant when aluminum hydroxide included in formulation (HPLC) ([1]; pH 9, dissolved in 10 mM NaOH)	presence of compound in supernatant when aluminum hydroxide included in formulation (HPLC) ([1]; pH 6.5 (adjusted with HCl))	quantity of compound in supernatant of formulation treated with KH2PO4 (desorption by phosphate anions) ([2]; 0.5M KH2PO4 pH 9, overnight 37° C.)	Concentration (mg/ml), phosphate/extract ([2]; alum formulation treated with 0.5M KH2PO4, n-butanol extracted sample) [mg/mL]	Concentration (mg/ml), phosphate supernatent ([2]; alum formulation treated with 0.5M KH2PO4 pH 9 overnight at 37° C., supernatant) [mg/mL]	Concentration (mg/ml), extaract ([2]; alum formulation, n-butanol extracted sample) [mg/mL]	Concentration (mg/ml), control/extract ([2]; control formulation without aluminum hydroxide, n-butanol extracted sample) [mg/mL]	Concentration (mg/ml), supernatant control ([2]; control formulation without aluminum hydroxide, supernatant) [mg/mL]	Concentration (mg/ml), supernatent ([2]; formulation with 2 mg/ml aluminum hydroxide, 10 mM histidine buffer pH 9, supernatant) [mg/mL]
Cc1ccc2c(c1)nc(N)c1ncc(CCc3ccc(OCCCC(F)(F)P(=O)(O)O)cc3C)cc12 [Compound 5, 4-(4-(2-(5-amino-8-methylbenzo[f][1,7]naphthyridin-2-yl)ethyl)-3-methylphenoxy)-1,1-difluorobutylphosphonic acid]	6.51	not present in the supernatant	not present in the supernatant								
Cc1ccc2c(c1)nc(N)c1ncc(CCc3ccc(OCCCP(=O)(O)O)cc3C)cc12 [Compound 1, 3-(4-(2-(5-amino-8-methylbenzo[f][1,7]naphthyridin-2-yl)ethyl)-3-methylphenoxy)propylphosphonic acid]	6.65		not present in the supernatant	not present in the supernatant	Increased quantities	0.119 ± 0.001	0.059 ± 0.001	0.027 ± 0.001	0.217 ± 0.001	0.329 ± 0.001	0.005 ± 0.001
